Laboratory results: patent US8394969B2, “Cyclic benzimidazole derivatives useful as anti-diabetic agents” (Merck Sharp & Dohme Corp., priority 2008, dated 2013)
Where a name gives a salt, the structure may show the parent alone.

The compounds below were run against recombinant human AMPK complex 1 (containing α1β1γ1) (Homo sapiens, UniProt Q13131+Q9Y478) (assay: […] (in vitro AMPK activation assay)). Details: not given.
Assay type: biochemical

recombinant human AMPK complex 1 (containing α1β1γ1), sequence (Q13131 whole entry): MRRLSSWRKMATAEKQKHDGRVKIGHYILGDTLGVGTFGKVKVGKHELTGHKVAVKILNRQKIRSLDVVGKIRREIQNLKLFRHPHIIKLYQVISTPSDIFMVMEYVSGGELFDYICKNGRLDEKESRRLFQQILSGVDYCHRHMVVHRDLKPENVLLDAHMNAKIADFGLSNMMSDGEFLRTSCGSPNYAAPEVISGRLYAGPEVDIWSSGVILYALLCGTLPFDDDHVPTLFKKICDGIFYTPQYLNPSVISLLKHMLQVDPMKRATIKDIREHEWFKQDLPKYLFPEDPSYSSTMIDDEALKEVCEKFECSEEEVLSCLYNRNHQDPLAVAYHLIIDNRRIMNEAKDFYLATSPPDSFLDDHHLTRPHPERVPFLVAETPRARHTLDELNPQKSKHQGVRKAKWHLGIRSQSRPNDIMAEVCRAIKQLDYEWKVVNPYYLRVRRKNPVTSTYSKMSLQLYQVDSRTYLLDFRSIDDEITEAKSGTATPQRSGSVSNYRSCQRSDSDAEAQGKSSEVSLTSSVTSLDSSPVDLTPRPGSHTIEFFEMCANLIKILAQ
recombinant human AMPK complex 1 (containing α1β1γ1), sequence (Q9Y478 whole entry): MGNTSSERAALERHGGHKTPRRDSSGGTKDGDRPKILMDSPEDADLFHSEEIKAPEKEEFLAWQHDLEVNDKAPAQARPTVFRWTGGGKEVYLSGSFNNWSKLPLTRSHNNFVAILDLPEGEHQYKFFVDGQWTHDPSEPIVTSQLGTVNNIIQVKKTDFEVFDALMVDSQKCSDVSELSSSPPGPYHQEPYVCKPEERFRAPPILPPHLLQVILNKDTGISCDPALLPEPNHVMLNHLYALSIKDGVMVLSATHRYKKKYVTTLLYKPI
recombinant human AMPK complex 1 (containing α1β1γ1), sequence (P54619 whole entry partner): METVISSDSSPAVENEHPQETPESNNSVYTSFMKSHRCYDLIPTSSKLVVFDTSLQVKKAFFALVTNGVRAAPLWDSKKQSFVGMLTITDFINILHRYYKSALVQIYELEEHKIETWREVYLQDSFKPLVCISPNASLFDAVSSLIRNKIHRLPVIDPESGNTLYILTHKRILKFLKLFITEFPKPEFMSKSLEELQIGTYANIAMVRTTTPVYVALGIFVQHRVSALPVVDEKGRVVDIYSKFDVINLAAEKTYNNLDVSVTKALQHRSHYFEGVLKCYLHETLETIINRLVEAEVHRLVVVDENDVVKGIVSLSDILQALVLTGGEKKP

| Compound | % Maximum AMP Activation of human AMPK Complex 1 |
| --- | --- |
| CCCc1ccc(-c2cc3nc(Oc4ccc(C)c(C(=O)O)c4)[nH]c3cc2Cl)cc1.N [Example 348, Ammonium 5-{[6-chloro-5-(4-propylphenyl)-1H-benzimidazol-2-yl]oxy}-2-methylbenzoate] | greater than 80% |

Same assay, conditions: read-out: % Maximum AMP Activation of human AMPK Complex 1

| Compound | Emax [%] |
| --- | --- |
| Cc1ccc(Oc2nc3cc(-c4ccc5c(ccn5C(C)C)c4)c(Cl)cc3[nH]2)cc1C(=O)O [Example 253, 5-[6-Chloro-5-(1-isopropyl-1H-indol-5-yl)-1H-benzoimidazol-2-yloxy]-2-methyl-benzoic acid] | > 80 |

Same assay, conditions: recombinant human AMPK complex 1 (α1β1γ1); basal activity subtracted; read-out: % Maximum AMP Activation of human AMPK Complex 1

| Compound | Emax [%] |
| --- | --- |
| Cc1ccc(Oc2nc3cc(C#Cc4ccc(=O)[nH]c4)c(Cl)cc3[nH]2)cc1C(=O)O [Example 128, 5-[6-Chloro-5-(6-oxo-1,6-dihydro-pyridin-3-ylethynyl)-1H-benzoimidazol-2-yloxy]-2-methyl-benzoic acid] | > 80 |
| Cc1cc(Oc2nc3cc(-c4ccc(-c5ccccc5)cc4)c(Cl)cc3[nH]2)cc(C(=O)O)c1C [Example 11, 5-(5-Biphenyl-4-yl-6-chloro-1H-benzoimidazol-2-yloxy)-2,3-dimethyl-benzoic acid] | > 80 |
| NS(=O)(=O)c1cccc(Oc2nc3cc(-c4ccc(-c5ccccc5)cc4)c(Cl)cc3[nH]2)c1 [Example 220, 3-(5-Biphenyl-4-yl-6-chloro-1H-benzoimidazol-2-yloxy)-benzenesulfonamide] | > 80 |
| Cc1ccc(Oc2nc3cc(-c4ccc5c(ccn5C)c4)c(F)cc3[nH]2)cc1C(=O)O [Example 249, 5-[6-Fluoro-5-(1-methyl-1H-indol-5-yl)-1H-benzoimidazol-2-yloxy]-2-methyl-benzoic acid] | > 80 |
| O=C1Cc2cc(Oc3nc4cc(-c5ccc(-c6ccccc6)cc5)c(Cl)cc4[nH]3)ccc2O1 [Example 16, 5-(5-Biphenyl-4-yl-6-chloro-1H-benzoimidazol-2-yloxy)-3H-benzofuran-2-one] | > 80 |
| CCCc1ccc(-c2cc3nc(Oc4ccc(C)c(C(=O)O)c4)[nH]c3cc2Cl)cc1 [Example 347, 2-(3-carboxy-4-methylphenoxy)-6-chloro-5-(4-propylphenyl)-1H-3,1-benzimidazol-3-ium trifluoroacetate] | > 80 |
| Cc1ccc(Oc2nc3cc(-c4ccc(-c5cn[nH]c5)cc4)c(Cl)cc3[nH]2)cc1C(=O)O [Example 202, 5-({6-chloro-5-[4-(1H-pyrazol-4-yl)phenyl]-1H-benzimidazol-2-yl}oxy)-2-methylbenzoic acid] | > 80 |
| O=C(O)c1ccnc(Oc2nc3cc(-c4ccc(-c5ccccc5)cc4)c(Cl)cc3[nH]2)c1 [Example 215, 2-(5-Biphenyl-4-yl-6-chloro-1H-benzoimidazol-2-yloxy)-isonicotinic acid] | > 80 |
| Cc1ccc(Oc2nc3cc(-c4ccc(C#N)cc4)c(Cl)cc3[nH]2)cc1C(=O)O [Example 180, 5-[6-Chloro-5-(4-cyano-phenyl)-1H-benzoimidazol-2-yloxy]-2-methyl-benzoic acid] | > 80 |
| Cc1ccc(Oc2nc3cc(-c4ccc5c(c4)c(C)cn5C)c(Cl)cc3[nH]2)cc1C(=O)O [Example 288, 5-[6-Chloro-5-(1,3-dimethyl-1H-indol-5-yl)-1H-benzoimidazol-2-yloxy]-2-methyl-benzoic acid] | > 80 |
| N#Cc1cccc(Oc2nc3cc(-c4ccc(-c5ccccc5)cc4)c(Cl)cc3[nH]2)c1 [Example 42, 3-(5-Biphenyl-4-yl-6-chloro-1H-benzoimidazol-2-yloxy)-benzonitrile] | > 80 |
| Cc1ccc(Oc2nc3cc(-c4ccc5c(C)n[nH]c5c4)c(Cl)cc3[nH]2)cc1C(=O)O [Example 240, 5-[6-Chloro-5-(3-methyl-1H-indazol-6-yl)-1H-benzoimidazol-2-yloxy]-2-methyl-benzoic acid] | > 80 |
| Cc1ccc(Oc2nc3cc(-c4ccc(-c5ccccc5)cc4)c(Cl)cc3n2CC(=O)O)cc1C(=O)O [Example 224, 5-(5-Biphenyl-1-yl-1-carboxymethyl-6-chloro-1H-benzoimidazol-2-yloxy)-2-methyl-benzoic acid] | > 80 |
| N#Cc1ccc(Oc2nc3cc(-c4ccc(-c5ccccc5)cc4)c(Cl)cc3[nH]2)cc1C#N [Example 101, 4-(5-Biphenyl-4-yl-6-chloro-1H-benzoimidazol-2-yloxy)-phthalonitrile] | > 80 |
| Cc1ccc(Oc2nc3cc(-c4ccc(CO)cc4)c(Cl)cc3[nH]2)cc1C(=O)O [Example 330, 2-(3-carboxy-4-methylphenoxy)-6-chloro-5-[4-(hydroxymethyl)phenyl]-1H-3,1-benzimidazol-3-ium trifluoroacetate] | > 80 |
| COC(=O)c1cc(Oc2nc3cc(C#Cc4ccc(F)cc4)c(Cl)cc3[nH]2)ccc1C [Example 114, 5-[6-Chloro-5-(4-fluoro-phenylethynyl)-1H-benzoimidazol-2-yloxy]-2-methyl-benzoic acid methyl ester] | > 80 |

| Compound | Emax [%] |
| --- | --- |
| CC(=O)N1CCc2cc(-c3cc4nc(Oc5ccc(C)c(C(=O)O)c5)[nH]c4cc3Cl)ccc21 [Example 306, 5-[5-(1-Acetyl-2,3-dihydro-1H-indol-5-yl)-6-chloro-1H-benzoimidazol-2-yloxy]-2-methyl-benzoic acid] | > 80 |
| O=C(O)c1cc(O)cc(Oc2nc3cc(-c4ccc(-c5ccccc5)cc4)c(Cl)cc3[nH]2)c1 [Example 35, 3-(5-Biphenyl-4-yl-6-chloro-1H-benzoimidazol-2-yloxy)-5-hydroxy-benzoic acid] | > 80 |
| Cc1ccc(Oc2nc3cc(-c4ccc5c(c4)N(C)CCN5C)c(Cl)cc3[nH]2)cc1C(=O)O [Example 362, 5-[6-chloro-5-(1,4-dimethyl-1,2,3,4-tetrahydro-quinoxalin-6-yl)-1H-benzoimidazol-2-yloxy]-2-methyl-benzoic acid] | > 80 |
| CC(=O)NS(=O)(=O)c1cccc(Oc2nc3cc(-c4ccc(-c5ccccc5)cc4)c(Cl)cc3[nH]2)c1 [Example 206, N-Acetyl-3-(5-biphenyl-4-yl-6-chloro-1H-benzoimidazol-2-yloxy)-benzenesulfonamide] | > 80 |
| O=C(O)Cc1cc(Oc2nc3cc(-c4ccc(-c5ccccc5)cc4)c(Cl)cc3[nH]2)ccc1O [Example 17, [5-(5-Biphenyl-4-yl-6-chloro-1H-benzoimidazol-2-yloxy)-2-hydroxy-phenyl]-acetic acid] | > 80 |
| Cc1ccc(Oc2nc3cc(-c4ccc5c(c4)CC(=O)N5)c(Cl)cc3[nH]2)cc1C(=O)O [Example 307, 5-[6-Chloro-5-(2-oxo-2,3-dihydro-1H-indol-5-yl)-1H-benzoimidazol-2-yloxy]-2-methyl-benzoic acid] | > 80 |
| Cc1ccc(Oc2nc3cc(C#Cc4ccc(-c5cccnc5)cc4)c(Cl)cc3[nH]2)cc1C(=O)O [Example 70, 5-[6-Chloro-5-(4-pyridin-3-yl-phenylethynyl)-1H-benzoimidazol-2-yloxy]-2-methyl-benzoic acid] | > 80 |
| COc1ccc2cc(-c3cc4nc(Oc5ccc(C)c(C(=O)O)c5)[nH]c4cc3Cl)ccc2c1 [Example 145, 5-[6-Chloro-5-(6-methoxy-naphthalen-2-yl)-1H-benzoimidazol-2-yloxy]-2-methyl-benzoic acid] | > 80 |
| Cc1ccc(Oc2nc3cc(C#Cc4ccc(F)cc4F)c(Cl)cc3[nH]2)cc1C(=O)O [Example 76, 5-[6-Chloro-5-(2,4-difluoro-phenylethynyl)-1H-benzoimidazol-2-yloxy]-2-methyl-benzoic acid] | > 80 |
| NC(=O)c1ccc(Oc2nc3cc(-c4ccc(-c5ccccc5)cc4)c(Cl)cc3[nH]2)cc1 [Example 30, 4-(5-Biphenyl-4-yl-6-chloro-1H-benzoimidazol-2-yloxy)-benzamide] | > 80 |
| COC(=O)c1cc(Oc2nc3cc(C#Cc4cccnc4)c(Cl)cc3[nH]2)ccc1C [Example 133, 5-(6-Chloro-5-pyridin-3-ylethynyl-1H-benzoimidazol-2-yloxy)-2-methyl-benzoic acid methyl ester] | > 80 |
| Cc1ccc(Oc2nc3cc(C#Cc4ccc(-c5ncc[nH]5)cc4)c(Cl)cc3[nH]2)cc1C(=O)O [Example 73, 5-{6-Chloro-5-[4-(1H-imidazol-2-yl)-phenylethynyl]1H-benzoimidazol-2-yloxy}-2-methyl-benzoic acid] | > 80 |
| COC(=O)c1cc(Oc2nc3cc(C#Cc4ccccc4C)c(Cl)cc3[nH]2)ccc1C [Example 99, 5-(6-Chloro-5-o-tolylethynyl-1H-benzoimidazol-2-yloxy)-2-methyl-benzoic acid methyl ester] | > 80 |
| Cc1ccc(Oc2nc3cc(C#Cc4cccc(O)c4)c(Cl)cc3[nH]2)cc1C(=O)O [Example 124, 5-[6-Chloro-5-(3-hydroxy-phenylethynyl)-1H-benzoimidazol-2-yloxy]-2-methyl-benzoic acid] | > 80 |
| COC(=O)c1cc(Oc2nc3cc(-c4ccc(-c5ccc(=O)n(C)c5)cc4)c(Cl)cc3[nH]2)ccc1C [Example 170, 5-{6-Chloro-5-[4-(1-methyl-6-oxo-1,6-dihydro-pyridin-3-yl)-pheny1]-1H-benzoimidazol-2-yloxy}-2-methyl-benzoic acid methyl ester] | > 80 |
| CC(=O)c1ccc2cc(-c3cc4nc(Oc5ccc(C)c(C(=O)O)c5)[nH]c4cc3Cl)ccc2c1 [Example 298, 5-[5-(6-Acetyl-naphthalen-2-yl)-6-chloro-1H-benzoimidazol-2-yloxy]-2-methyl-benzoic acid] | > 80 |

Same assay, conditions: recombinant human AMPK complex 1 (α1β1γ1); read-out: EC50

| Compound | EC50 [nM] |
| --- | --- |
| Cc1ccc(Oc2nc3cc(-c4ccc(C5(CO)CC5)cc4)c(Cl)cc3[nH]2)cc1C(=O)O [Example 262, 5-[(6-chloro-5-{4-[1-(hydroxymethyl)cyclopropyl]phenyl}-1H-benzimidazol-2-yl)oxy]-2-methylbenzoic acid] | 3 |
| Cc1ccc(Oc2nc3cc(-c4ccc5c(c4)OCCN5C)c(Cl)cc3[nH]2)cc1C(=O)O [Example 151, 2-(3-carboxy-4-methylphenoxy)-6-chloro-5-(4-methyl-3,4-dihydro-2H-1,4-benzoxazin-7-yl)-1H-3,1-benzimidazol-3-ium chloride] | 22 |
| Cc1ccc(Oc2nc3cc(-c4ccc(C5CC5)cc4)c(Cl)cc3[nH]2)cc1C(=O)O [Example 230, 5-{[6-chloro-5-(4-cyclopropylphenyl)-1H-benzimidazol-2-yl]oxy}-2-methylbenzoic acid] | 9 |
